Source: ChEMBL document CHEMBL5214933, “Discovery of Selenium-Containing STING Agonists as Orally Available Antitumor Agents” (J Med Chem, 2022)
In brackets after ≈: the same amount, converted by molar mass. Activity calls are given as the source filed them. The rule behind the calls is not given here.

Legend:
[1] = molecular target: T1, Stimulator of interferon genes protein (Homo sapiens, UniProt Q86WV6); test: Agonist activity at STING in human THP-1 cells harboring IRF-inducible luciferase reporter construct assessed as fold change in ISG signalling at 20 uM incubated for 12 hrs by Quanti-luc reagent based assay relative to control; format: cell-based; conditions: filed as agonist
[2] = test system: Stimulator of interferon genes protein (Homo sapiens), Q86WV6 [UNDEFINED MUTATION]; test: Binding affinity to recombinant human STING H232 variant expressed in Escherichia coli BL21 (DE3) assessed as thermal stabilization by measuring change in melting temperature at 2 mM incubated for 30 mins by SYPRO orange dye based differential scanning fluorimetry assay
[3] = molecular target: T1, Stimulator of interferon genes protein; test: Agonist activity at STING in cGAS knockout human THP-1 cells harboring IRF-inducible luciferase reporter construct assessed as increase in ISG signalling at 20 uM incubated for 12 hrs by Quanti-luc reagent based assay; format: cell-based; conditions: filed as agonist
[4] = molecular target: T1, Stimulator of interferon genes protein; test: Agonist activity at STING in human THP-1 cells harboring IRF-inducible luciferase reporter construct assessed as increase in ISG signalling incubated for 12 hrs by Quanti-luc reagent based assay; format: cell-based
[5] = molecular target: T2, Stimulator of interferon genes protein (Mus musculus) (UniProt Q3TBT3); test: Agonist activity at STING in mouse RAW264.7 cells harboring IRF-inducible luciferase reporter construct assessed as increase in ISG signalling at 20 uM incubated for 12 hrs by Quanti-luc reagent based assay; format: cell-based; conditions: filed as agonist
T2 sequence (whole entry): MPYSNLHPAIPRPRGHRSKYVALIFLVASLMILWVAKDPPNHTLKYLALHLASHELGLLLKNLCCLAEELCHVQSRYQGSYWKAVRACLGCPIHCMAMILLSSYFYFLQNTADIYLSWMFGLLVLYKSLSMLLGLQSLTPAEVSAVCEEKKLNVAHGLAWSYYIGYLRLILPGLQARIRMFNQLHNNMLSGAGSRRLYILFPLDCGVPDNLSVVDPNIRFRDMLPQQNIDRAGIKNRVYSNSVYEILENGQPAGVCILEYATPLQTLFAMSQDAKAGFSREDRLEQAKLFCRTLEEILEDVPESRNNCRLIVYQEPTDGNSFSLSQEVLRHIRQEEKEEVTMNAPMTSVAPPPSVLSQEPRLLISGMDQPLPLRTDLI

[6] = Half life in Sprague-Dawley rat at 50 mg/kg, po measured for 1440 mins by LC-MS/MS analysis; format: ADME, organism-based; conditions: in vivo
[7] = Clearance in Sprague-Dawley rat at 50 mg/kg, po measured for 1440 mins by LC-MS/MS analysis; format: ADME, organism-based; conditions: in vivo
[8] = Oral bioavailability in Sprague-Dawley rat at 50 mg/kg measured for 1440 mins by LC-MS/MS analysis; format: ADME, organism-based; conditions: in vivo
CYP3A4 = CYP3A4 (Homo sapiens, UniProt P08684); test: Inhibition of recombinant CYP3A4 (unknown origin) using midazolam as substrate assessed as reduction in substrate hydroxylation at 10 uM incubated for 5 mins in presence of NADPH by LC-MS/MS analysis relative to control; format: ADME; conditions: recombinant CYP3A4, probe midazolam
[9] = Stability in human plasma assessed as parent compound remaining at 1 uM incubated for 24 hrs in presence of NADPH by LC-MS/MS analysis; format: ADME, cell-free; conditions: read-out: Stability
[10] = Permeability of the compound in PBS buffer incubated for 5 hrs by PAMPA-based LC-MS/MS analysis; format: ADME; conditions: read-out: permeability
[11] = Solubility of compound in PBS buffer at pH 7.4 at 3 mg incubated for 24 hrs under shaking condition by RP-HPLC analysis; format: physicochemical
[12] = Stability in rat liver microsomes assessed as parent compound remaining at 1 uM incubated for 2 hrs in presence of NADPH by LC-MS/MS analysis; format: ADME, Microsome; conditions: read-out: Stability
[13] = Half life in Sprague-Dawley rat at 5 mg/kg, iv measured for 1440 mins by LC-MS/MS analysis; format: ADME, organism-based; conditions: in vivo
[14] = Volume of distribution at steady state in Sprague-Dawley rat at 5 mg/kg, iv measured for 1440 mins by LC-MS/MS analysis; format: ADME, organism-based; conditions: in vivo, read-out: Vdss
[15] = test system: Stimulator of interferon genes protein (Homo sapiens), Q86WV6 [UNDEFINED MUTATION]; test: Binding affinity to recombinant human STING AQ variant expressed in Escherichia coli BL21 (DE3) assessed as thermal stabilization by measuring change in melting temperature at 0.1 mM incubated for 30 mins by SYPRO orange dye based differential scanning fluorimetry assay
[16] = AUC (0 to infinity) in Sprague-Dawley rat at 5 mg/kg, iv measured for 1440 mins by LC-MS/MS analysis; format: ADME, organism-based; design: dose 5 mg/kg, time 1440 min, route iv; conditions: in vivo
4T1 [17] = test: Antitumor activity against mouse 4T1 cells implanted in naive BALB/c mouse assessed as increase in Ki67-positive CD8 T cells in tumor at 80 mg/kg, po administered once every 5 days by FACS analysis (reference value: 14%); format: functional; conditions: time 5 day
[18] = Cmax in Sprague-Dawley rat at 50 mg/kg, po measured for 1440 mins by LC-MS/MS analysis; format: ADME, organism-based; design: time 1440 min, dose 50 mg/kg, route po; conditions: in vivo
[19] = test system: Stimulator of interferon genes protein (Homo sapiens), Q86WV6 [UNDEFINED MUTATION]; test: Binding affinity to recombinant human STING R232 variant expressed in Escherichia coli BL21 (DE3) assessed as thermal stabilization by measuring change in melting temperature at 0.1 mM incubated for 30 mins by SYPRO orange dye based differential scanning fluorimetry assay
[20] = Lipophilicity, logP of compound by RP-HPLC analysis; format: physicochemical
[21] = AUC (0 to infinity) in Sprague-Dawley rat at 50 mg/kg, po measured for 1440 mins by LC-MS/MS analysis; format: ADME, organism-based; design: time 1440 min, dose 50 mg/kg, route po; conditions: in vivo
4T1 [22] = test: Antitumor activity against mouse 4T1 cells implanted in naive BALB/c mouse assessed as increase in Ki67-positive CD4 T cells in tumor at 80 mg/kg, po administered once every 5 days by FACS analysis (reference value: 4.4%); format: functional; conditions: time 5 day
[23] = Volume of distribution at steady state in Sprague-Dawley rat at 50 mg/kg, po measured for 1440 mins by LC-MS/MS analysis; format: ADME, organism-based; conditions: in vivo, 24 h
[24] = Protein binding in plasma (unknown origin) assessed as unbound fraction at 2 uM incubated for 4 hrs under shaking condition by rapid equilibrium dialysis method; format: ADME, cell-free
[25] = Clearance in Sprague-Dawley rat at 5 mg/kg, iv measured for 1440 mins by LC-MS/MS analysis; format: ADME, organism-based; conditions: in vivo
hERG = hERG (Homo sapiens, UniProt Q12809); test: Inhibition of hERG expressed in HEK293 cells at 10 uM incubated for 5 mins by QPatch automated patch-clamp technique relative to control; format: toxicity, cell-based; conditions: HEK293 cells that express hERG
[26] = Aqueous solubility of compound at 3 mg incubated for 24 hrs under shaking condition by RP-HPLC analysis; format: physicochemical; conditions: water

T1 sequence (Q86WV6 whole entry): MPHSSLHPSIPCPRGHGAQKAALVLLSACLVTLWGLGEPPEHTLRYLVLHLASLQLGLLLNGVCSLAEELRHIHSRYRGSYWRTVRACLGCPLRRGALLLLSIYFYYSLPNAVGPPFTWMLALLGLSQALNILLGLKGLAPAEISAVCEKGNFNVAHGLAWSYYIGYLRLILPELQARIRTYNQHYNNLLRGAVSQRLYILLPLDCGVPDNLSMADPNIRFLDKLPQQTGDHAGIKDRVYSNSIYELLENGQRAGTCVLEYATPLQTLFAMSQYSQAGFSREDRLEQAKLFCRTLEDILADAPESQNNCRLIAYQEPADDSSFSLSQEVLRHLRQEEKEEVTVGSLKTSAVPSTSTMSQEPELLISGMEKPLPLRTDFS
Stimulator of interferon genes protein (Homo sapiens), Q86WV6 [UNDEFINED MUTATION], sequence (Q86WV6 whole entry, looked up, stated change not applied): as the sequence (Q86WV6 whole entry) above
CYP3A4, sequence (P08684 whole entry): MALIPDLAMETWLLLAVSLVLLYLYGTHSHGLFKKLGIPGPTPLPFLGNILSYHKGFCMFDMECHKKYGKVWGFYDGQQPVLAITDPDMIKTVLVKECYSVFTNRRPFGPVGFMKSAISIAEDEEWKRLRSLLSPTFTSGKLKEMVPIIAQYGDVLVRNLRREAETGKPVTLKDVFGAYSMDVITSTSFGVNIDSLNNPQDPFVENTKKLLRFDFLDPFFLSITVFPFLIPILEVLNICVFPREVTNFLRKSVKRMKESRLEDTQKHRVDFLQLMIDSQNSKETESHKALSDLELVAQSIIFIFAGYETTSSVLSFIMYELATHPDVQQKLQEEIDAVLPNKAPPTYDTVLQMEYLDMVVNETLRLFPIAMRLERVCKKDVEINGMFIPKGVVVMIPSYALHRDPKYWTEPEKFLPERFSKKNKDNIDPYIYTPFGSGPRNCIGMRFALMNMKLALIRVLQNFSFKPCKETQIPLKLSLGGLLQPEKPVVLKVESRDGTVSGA
hERG, sequence (Q12809 whole entry): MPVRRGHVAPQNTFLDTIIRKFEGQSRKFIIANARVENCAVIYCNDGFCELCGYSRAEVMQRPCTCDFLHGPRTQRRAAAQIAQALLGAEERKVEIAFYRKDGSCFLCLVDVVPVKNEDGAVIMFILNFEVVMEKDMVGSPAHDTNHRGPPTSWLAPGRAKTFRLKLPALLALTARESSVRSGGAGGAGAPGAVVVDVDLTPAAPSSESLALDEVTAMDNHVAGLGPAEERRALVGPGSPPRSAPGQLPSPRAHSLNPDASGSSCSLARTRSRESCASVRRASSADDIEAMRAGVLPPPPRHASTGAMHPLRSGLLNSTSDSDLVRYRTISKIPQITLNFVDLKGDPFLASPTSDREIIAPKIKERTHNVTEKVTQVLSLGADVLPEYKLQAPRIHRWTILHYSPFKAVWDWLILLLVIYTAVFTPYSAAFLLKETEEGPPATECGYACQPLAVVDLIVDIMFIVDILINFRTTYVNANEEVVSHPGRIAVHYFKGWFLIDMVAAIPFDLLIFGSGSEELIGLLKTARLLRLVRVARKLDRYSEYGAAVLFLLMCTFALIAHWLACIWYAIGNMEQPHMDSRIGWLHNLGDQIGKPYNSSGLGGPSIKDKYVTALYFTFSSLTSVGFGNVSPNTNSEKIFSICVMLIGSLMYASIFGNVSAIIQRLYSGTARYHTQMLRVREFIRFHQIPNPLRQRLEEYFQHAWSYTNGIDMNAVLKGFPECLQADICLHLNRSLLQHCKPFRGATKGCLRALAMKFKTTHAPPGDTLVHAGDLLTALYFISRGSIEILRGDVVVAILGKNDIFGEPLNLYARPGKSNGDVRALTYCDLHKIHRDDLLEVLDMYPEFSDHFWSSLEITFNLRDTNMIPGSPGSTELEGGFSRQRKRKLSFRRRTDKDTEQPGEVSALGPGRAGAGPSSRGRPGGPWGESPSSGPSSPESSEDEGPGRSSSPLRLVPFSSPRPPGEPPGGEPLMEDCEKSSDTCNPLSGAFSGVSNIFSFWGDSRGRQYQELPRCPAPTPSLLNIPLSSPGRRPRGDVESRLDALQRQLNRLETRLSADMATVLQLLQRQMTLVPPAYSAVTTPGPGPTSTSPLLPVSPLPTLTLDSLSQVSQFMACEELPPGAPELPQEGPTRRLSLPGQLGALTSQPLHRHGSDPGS

SMILES: COc1cc2cc(C(=O)CC(C)(C)C(=O)O)[se]c2cc1OC
- fold change (FC) [1]: 5
- ΔTm [2]: -1.5 °C

SMILES: CCC(CC(=O)c1cc2cc(OC)c(OC)cc2[se]1)C(=O)O (racemic)
- fold change (FC) [1]: 27
- ΔTm [2]: 4.5 °C

SMILES: COc1ccc2cc(C(=O)CC(C)C(=O)O)[se]c2c1 (racemic)
- ΔTm [2]: -0.1 °C

SMILES: COc1cc2cc(C(=O)CC(C(=O)O)C(C)C)[se]c2cc1OC (racemic)
- fold change (FC) [1]: 10
- ΔTm [2]: -1.9 °C

SMILES: CCC(=O)C(C)CC(=O)c1cc2cc(OC)c(OC)cc2[se]1 (stereo not given)
- fold change (FC) [1]: 15
- ΔTm [2]: -0.2 °C

SMILES: CCC(CC(=O)c1cc2cc(OC)c(OC)cc2o1)C(=O)O (racemic)
- ΔTm [2]: -0.1 °C

SMILES: COc1ccc2[se]c(C(=O)CC(C)C(=O)O)cc2c1 (racemic)
- ΔTm [2]: -0.3 °C

SMILES: CCC(CC(=O)c1cc2cc(OC)c(OC)cc2s1)C(=O)O (racemic)
- fold change (FC) [1]: 18
- ΔTm [2]: 4.7 °C

SMILES: COc1cc2cc(C(=O)C3CC3C(=O)O)[se]c2cc1OC (racemic)
- fold change (FC) [1]: 7
- ΔTm [2]: 6.2 °C

SMILES: COCC(CC(=O)c1cc2cc(OC)c(OC)cc2[se]1)C(=O)O (racemic)
- fold change (FC) [1]: 7
- ΔTm [2]: 0.9 °C

SMILES: COc1cc2cc(C(=O)C3CCC3C(=O)O)[se]c2cc1OC (racemic)
- fold change (FC) [1]: 24
- ΔTm [2]: 9.1 °C

SMILES: CCCC(CC(=O)c1cc2cc(OC)c(OC)cc2[se]1)C(=O)O (racemic)
- fold change (FC) [1]: 14
- ΔTm [2]: -1.2 °C

SMILES: COc1cc2cc(C(=O)CC(C)C(N)=O)[se]c2cc1OC (racemic)
- ΔTm [2]: -0.8 °C

SMILES: COc1cc2cc(C(=O)CC(C)C(=O)O)[se]c2cc1OC (racemic)
- Activity [3]: Active
- EC50 [4]: 21.3 µM
- fold change (FC) [1]: 15
- ΔTm [2]: 2.7 °C
- Activity [5]: Active

SMILES: COc1cc2cc(C(=O)CCC(=O)O)sc2cc1OC
- half-life [6]: 1.65 h
- CL/F [7]: 15.2 mL/min/kg
- bioavailability [8]: 58%
- inhibition at 5 min, 10 µM (CYP3A4): 7.59%
- remaining at 24 h, 1 µM [9]: 100%
- Papp at 5 h [10]: 1.7 ×10⁻⁶ cm/s
- solubility thermodynamic at 24 h [11]: 300 µg/mL (≈ 1020 µM)
- remaining at 2 h, 1 µM [12]: 87%
- half-life [13]: 1.71 h
- Vd [14]: 1.28 L/kg
- ΔTm [15]: 23.3 °C
- AUC(0-inf) [16]: 9800 ng·h/mL
- Activity (4T1 [17]): 7.7%
- Cmax [18]: 23300 ng/mL
- ΔTm [19]: 9.1 °C
- logP [20]: 1.5
- AUC(0-inf) [21]: 56800 ng·h/mL
- Activity (4T1 [22]): 5.5%
- Vdss [23]: 2.18 L/kg
- Fu [24]: 0.19%
- fold change (FC) [1]: 32
- clearance [25]: 8.5 mL/min/kg
- ΔTm [2]: 3.9 °C
- inhibition at 5 min, 10 µM (hERG): 0.86%
- solubility thermodynamic at 24 h [26]: 6 µg/mL (≈ 20.4 µM)

SMILES: COc1cc2cc(C(=O)CCC(=O)O)[se]c2cc1OC
- fold change (FC) [1]: 2
- ΔTm [2]: -1.1 °C

SMILES: CC(CC(=O)c1cc2cc3c(cc2[se]1)OCO3)C(=O)O (racemic)
- ΔTm [2]: -0.5 °C
